Columns and labels:
[1] = target: T1, Solute carrier family 22 member 2 (Rattus norvegicus, UniProt Q9R0W2); assay: TP_TRANSPORTER: inhibition pramipexole uptake in rOCT2-injected oocytes; type: functional, cell-based, Oocyte
T1 sequence (Q9R0W2 whole entry): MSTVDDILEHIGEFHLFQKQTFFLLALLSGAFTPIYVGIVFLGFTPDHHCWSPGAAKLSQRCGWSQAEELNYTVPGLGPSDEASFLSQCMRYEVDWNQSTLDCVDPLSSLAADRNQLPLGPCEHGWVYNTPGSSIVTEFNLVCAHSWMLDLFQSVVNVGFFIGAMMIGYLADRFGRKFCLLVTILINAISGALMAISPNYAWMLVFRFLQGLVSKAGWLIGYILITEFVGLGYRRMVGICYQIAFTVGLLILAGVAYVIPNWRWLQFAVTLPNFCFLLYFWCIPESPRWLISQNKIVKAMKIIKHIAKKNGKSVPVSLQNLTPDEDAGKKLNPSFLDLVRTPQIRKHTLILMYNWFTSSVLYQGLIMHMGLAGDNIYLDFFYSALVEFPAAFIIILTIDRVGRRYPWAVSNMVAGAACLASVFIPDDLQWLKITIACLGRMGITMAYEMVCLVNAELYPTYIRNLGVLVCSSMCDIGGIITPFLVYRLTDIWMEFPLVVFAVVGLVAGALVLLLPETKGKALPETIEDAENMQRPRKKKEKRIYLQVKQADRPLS

[2] = target: T2, Solute carrier family 22 member 1 (Rattus norvegicus, UniProt Q63089); assay: TP_TRANSPORTER: inhibition pramipexole uptake in rOCT1-injected oocytes; type: functional, cell-based, Oocyte
T2 sequence (Q63089 whole entry): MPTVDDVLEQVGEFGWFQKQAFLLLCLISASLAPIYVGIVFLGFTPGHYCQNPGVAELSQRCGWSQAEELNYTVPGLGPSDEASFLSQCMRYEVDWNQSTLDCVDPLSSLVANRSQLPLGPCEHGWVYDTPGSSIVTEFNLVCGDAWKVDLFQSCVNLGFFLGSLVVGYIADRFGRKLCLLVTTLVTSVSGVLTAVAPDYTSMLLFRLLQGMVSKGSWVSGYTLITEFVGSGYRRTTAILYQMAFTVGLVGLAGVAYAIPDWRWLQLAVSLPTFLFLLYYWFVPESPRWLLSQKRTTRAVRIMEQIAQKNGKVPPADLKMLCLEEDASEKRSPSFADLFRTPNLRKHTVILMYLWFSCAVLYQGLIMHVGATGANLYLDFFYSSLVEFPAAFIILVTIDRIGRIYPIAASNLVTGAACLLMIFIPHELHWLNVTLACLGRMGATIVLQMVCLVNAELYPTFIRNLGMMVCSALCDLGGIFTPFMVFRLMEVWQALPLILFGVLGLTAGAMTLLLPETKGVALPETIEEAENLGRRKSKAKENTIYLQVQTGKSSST

[3] = target: T1, Solute carrier family 22 member 2; assay: TP_TRANSPORTER: uptake in Xenopus laevis oocytes; conditions: Xenopus laevis oocytes expressing the transporter
[4] = substrate: CCCN[C@H]1CCc2nc(N)sc2C1; assay: cells, lysate or membranes named

Molecule: C[C@]12C[C@H](O)[C@H]3[C@@H](CCC4=CC(=O)CC[C@@]43C)[C@@H]1CC[C@@H]2C(=O)CO [CORTICOSTERONE]
- IC50 [1]: 10.7 µM
- IC50 [2]: 164 µM

Molecule: CCCN[C@H]1CCc2nc(N)sc2C1 [PRAMIPEXOLE]
- Km [3]: 17 µM

Molecule: NC12CC3CC(CC(C3)C1)C2 [AMANTADINE]
- IC50 [1]: 271 µM
- IC50 [2]: 76.3 µM

Molecule: CCN(CC)CCNC(=O)c1ccc(N)cc1 [PROCAINAMIDE]
- IC50 [1]: 167 µM

B1: Solute carrier family 22 member 2 (Rattus norvegicus) (protein)
chain: MSTVDDILEHIGEFHLFQKQTFFLLALLSGAFTPIYVGIVFLGFTPDHHCWSPGAAKLSQRCGWSQAEELNYTVPGLGPSDEASFLSQCMRYEVDWNQSTLDCVDPLSSLAADRNQLPLGPCEHGWVYNTPGSSIVTEFNLVCAHSWMLDLFQSVVNVGFFIGAMMIGYLADRFGRKFCLLVTILINAISGALMAISPNYAWMLVFRFLQGLVSKAGWLIGYILITEFVGLGYRRMVGICYQIAFTVGLLILAGVAYVIPNWRWLQFAVTLPNFCFLLYFWCIPESPRWLISQNKIVKAMKIIKHIAKKNGKSVPVSLQNLTPDEDAGKKLNPSFLDLVRTPQIRKHTLILMYNWFTSSVLYQGLIMHMGLAGDNIYLDFFYSALVEFPAAFIIILTIDRVGRRYPWAVSNMVAGAACLASVFIPDDLQWLKITIACLGRMGITMAYEMVCLVNAELYPTYIRNLGVLVCSSMCDIGGIITPFLVYRLTDIWMEFPLVVFAVVGLVAGALVLLLPETKGKALPETIEDAENMQRPRKKKEKRIYLQVKQADRPLS
- Km [4]: 17 µM
